ChEMBL document CHEMBL4007384, “Synthesis and optimization of furano[3,2-d]pyrimidines as selective spleen tyrosine kinase (Syk) inhibitors” (Bioorg Med Chem Lett, 2016)

Experiments:
[1] = target: Macrophage colony-stimulating factor 1 receptor (Homo sapiens, UniProt P07333); assay: Inhibition of CSF1R (unknown origin) after 60 mins by TR-FRET assay
[2] = target: Insulin receptor (Homo sapiens, UniProt P06213); assay: Inhibition of INSR (unknown origin) after 60 mins by TR-FRET assay
[3] = target: Cyclin-dependent kinase 9 (Homo sapiens, UniProt P50750); assay: Inhibition of CDK9 (unknown origin) after 60 mins by TR-FRET assay
[4] = target: T1, Activin receptor type-1 (Homo sapiens, UniProt Q04771); assay: Inhibition of ACVR1 (unknown origin) after 60 mins by TR-FRET assay
T1 sequence (Q04771 whole entry): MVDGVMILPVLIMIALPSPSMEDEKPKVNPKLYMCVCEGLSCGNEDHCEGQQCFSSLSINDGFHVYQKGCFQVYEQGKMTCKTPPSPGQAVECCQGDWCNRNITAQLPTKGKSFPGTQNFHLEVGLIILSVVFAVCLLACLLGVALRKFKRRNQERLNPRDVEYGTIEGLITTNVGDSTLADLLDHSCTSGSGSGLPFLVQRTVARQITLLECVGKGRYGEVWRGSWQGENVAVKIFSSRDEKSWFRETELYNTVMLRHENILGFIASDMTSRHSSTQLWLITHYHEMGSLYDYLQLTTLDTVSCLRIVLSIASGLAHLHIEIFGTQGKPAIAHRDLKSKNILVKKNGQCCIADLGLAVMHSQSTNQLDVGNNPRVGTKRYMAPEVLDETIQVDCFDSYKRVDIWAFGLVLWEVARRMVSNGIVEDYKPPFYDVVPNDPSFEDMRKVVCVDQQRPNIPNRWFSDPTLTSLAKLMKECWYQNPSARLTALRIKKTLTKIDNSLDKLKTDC

[5] = target: T2, Tyrosine-protein kinase receptor TYRO3 (Homo sapiens, UniProt Q06418); assay: Inhibition of TYRO3 (unknown origin) after 60 mins by TR-FRET assay
T2 sequence (Q06418 whole entry): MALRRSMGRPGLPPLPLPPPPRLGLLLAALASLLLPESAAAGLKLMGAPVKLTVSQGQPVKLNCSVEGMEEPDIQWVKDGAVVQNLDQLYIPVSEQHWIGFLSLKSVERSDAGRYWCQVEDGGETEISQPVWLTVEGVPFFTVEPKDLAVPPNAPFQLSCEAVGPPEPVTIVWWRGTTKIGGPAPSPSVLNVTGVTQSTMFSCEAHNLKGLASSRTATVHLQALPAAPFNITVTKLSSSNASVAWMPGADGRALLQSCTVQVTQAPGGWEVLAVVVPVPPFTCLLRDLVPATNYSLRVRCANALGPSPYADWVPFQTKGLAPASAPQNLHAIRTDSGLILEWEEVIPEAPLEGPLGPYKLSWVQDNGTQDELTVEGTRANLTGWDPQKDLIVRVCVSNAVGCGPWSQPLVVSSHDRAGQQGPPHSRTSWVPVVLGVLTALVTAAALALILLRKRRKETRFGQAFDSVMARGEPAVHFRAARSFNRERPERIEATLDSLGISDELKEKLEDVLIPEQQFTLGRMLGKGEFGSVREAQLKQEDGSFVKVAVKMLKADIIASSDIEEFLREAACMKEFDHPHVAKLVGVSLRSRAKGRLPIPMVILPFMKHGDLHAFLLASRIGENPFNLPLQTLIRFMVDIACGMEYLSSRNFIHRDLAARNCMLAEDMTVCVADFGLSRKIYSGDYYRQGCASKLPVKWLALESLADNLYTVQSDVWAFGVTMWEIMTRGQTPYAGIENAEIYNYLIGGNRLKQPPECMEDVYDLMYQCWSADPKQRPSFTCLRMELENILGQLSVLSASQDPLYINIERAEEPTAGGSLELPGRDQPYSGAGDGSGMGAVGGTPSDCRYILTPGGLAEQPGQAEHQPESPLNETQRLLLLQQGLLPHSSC

[6] = target: G protein-coupled receptor kinase 5 (Homo sapiens, UniProt P34947); assay: Inhibition of GRK5 (unknown origin) after 60 mins by TR-FRET assay
[7] = target: T3, Serine/threonine-protein kinase TAO2 (Homo sapiens, UniProt Q9UL54); assay: Inhibition of TAOK2 (unknown origin) after 60 mins by TR-FRET assay
T3 sequence (Q9UL54 whole entry): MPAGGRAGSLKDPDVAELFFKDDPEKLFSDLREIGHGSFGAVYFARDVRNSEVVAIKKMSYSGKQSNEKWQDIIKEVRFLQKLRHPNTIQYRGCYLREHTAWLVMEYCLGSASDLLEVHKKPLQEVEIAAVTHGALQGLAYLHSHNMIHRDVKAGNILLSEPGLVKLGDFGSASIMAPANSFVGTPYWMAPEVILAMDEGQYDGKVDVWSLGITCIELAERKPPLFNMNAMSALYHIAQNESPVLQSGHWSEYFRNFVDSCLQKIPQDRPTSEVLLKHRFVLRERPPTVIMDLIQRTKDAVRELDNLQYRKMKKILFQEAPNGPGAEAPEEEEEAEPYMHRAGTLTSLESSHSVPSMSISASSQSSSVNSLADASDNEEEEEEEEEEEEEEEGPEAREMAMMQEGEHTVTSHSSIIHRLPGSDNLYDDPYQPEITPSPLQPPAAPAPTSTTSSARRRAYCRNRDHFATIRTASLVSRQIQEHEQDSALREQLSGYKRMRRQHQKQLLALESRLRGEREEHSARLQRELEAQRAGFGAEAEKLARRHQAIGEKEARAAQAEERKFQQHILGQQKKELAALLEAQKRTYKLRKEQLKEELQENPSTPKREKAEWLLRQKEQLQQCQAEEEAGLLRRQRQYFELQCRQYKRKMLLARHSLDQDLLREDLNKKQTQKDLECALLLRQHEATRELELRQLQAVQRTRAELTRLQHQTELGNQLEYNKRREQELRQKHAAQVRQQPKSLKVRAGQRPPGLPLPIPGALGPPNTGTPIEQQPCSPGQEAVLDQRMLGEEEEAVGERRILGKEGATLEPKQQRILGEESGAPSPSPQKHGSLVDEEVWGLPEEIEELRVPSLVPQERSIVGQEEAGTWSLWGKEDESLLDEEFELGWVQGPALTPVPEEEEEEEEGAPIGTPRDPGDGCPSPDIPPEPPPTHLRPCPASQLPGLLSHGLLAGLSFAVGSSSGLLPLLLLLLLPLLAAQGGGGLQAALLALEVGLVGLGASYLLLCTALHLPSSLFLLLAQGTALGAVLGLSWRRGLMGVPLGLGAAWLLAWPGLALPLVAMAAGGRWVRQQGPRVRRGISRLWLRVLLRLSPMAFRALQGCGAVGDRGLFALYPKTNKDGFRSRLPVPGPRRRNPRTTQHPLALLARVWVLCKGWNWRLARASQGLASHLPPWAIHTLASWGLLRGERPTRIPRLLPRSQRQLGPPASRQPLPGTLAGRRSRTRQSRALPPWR

[8] = target: AMP-activated protein kinase, AMPK; assay: Inhibition of AMPK (unknown origin) after 60 mins by TR-FRET assay; set-up: species or system Homo sapiens
[9] = target: Leukocyte tyrosine kinase receptor (Homo sapiens, UniProt P29376); assay: Inhibition of LTK (unknown origin) after 60 mins by TR-FRET assay
Leukocyte tyrosine kinase receptor, sequence (P29376 whole entry): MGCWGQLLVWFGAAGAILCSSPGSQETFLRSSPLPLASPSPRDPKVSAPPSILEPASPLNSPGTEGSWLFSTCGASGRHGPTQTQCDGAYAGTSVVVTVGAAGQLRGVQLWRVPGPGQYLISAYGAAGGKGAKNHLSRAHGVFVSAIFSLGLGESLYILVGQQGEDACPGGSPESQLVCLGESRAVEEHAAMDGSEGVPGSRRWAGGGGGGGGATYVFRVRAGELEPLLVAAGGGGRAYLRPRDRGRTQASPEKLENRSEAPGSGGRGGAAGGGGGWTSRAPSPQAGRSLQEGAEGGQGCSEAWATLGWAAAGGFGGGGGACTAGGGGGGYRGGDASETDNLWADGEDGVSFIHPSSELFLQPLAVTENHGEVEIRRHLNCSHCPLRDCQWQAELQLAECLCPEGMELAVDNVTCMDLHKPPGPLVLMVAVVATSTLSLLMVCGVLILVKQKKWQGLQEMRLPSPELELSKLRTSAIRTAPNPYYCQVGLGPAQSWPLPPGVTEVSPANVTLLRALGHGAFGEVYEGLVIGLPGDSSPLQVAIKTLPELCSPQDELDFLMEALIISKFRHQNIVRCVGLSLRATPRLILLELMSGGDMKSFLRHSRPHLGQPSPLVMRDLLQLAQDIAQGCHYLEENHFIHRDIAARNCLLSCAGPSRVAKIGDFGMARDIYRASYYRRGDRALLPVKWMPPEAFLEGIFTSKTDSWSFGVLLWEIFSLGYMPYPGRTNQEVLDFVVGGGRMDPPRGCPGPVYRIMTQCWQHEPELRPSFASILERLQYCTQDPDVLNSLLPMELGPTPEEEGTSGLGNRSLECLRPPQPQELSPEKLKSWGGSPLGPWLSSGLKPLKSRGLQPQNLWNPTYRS

Cyclin-dependent kinase 9, sequence (P50750 whole entry): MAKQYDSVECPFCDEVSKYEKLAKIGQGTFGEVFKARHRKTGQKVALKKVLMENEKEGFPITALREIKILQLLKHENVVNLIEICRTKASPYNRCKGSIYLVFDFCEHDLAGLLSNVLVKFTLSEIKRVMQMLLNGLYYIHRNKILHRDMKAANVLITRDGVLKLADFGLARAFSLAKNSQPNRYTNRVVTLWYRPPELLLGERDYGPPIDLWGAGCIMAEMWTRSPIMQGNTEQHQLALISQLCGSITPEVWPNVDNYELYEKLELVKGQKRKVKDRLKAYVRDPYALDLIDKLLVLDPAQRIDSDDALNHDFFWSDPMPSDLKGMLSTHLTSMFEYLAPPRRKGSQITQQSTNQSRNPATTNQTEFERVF
G protein-coupled receptor kinase 5, sequence (P34947 whole entry): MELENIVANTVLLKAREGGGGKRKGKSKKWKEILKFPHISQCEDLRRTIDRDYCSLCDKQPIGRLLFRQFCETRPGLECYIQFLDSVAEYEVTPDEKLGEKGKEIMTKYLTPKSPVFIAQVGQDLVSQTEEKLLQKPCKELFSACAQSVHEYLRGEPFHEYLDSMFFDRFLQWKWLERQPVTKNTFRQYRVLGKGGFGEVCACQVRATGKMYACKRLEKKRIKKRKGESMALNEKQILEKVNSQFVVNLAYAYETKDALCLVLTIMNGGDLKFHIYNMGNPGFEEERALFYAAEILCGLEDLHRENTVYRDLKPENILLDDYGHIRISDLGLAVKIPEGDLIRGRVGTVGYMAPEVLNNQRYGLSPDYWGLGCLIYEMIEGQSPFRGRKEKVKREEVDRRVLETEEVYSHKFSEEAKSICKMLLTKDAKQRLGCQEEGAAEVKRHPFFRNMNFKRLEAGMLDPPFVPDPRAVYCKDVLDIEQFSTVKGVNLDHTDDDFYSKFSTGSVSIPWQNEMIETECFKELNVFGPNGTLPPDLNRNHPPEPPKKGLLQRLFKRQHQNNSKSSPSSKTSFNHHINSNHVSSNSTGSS
Insulin receptor, sequence (P06213 28-758 limits assumed): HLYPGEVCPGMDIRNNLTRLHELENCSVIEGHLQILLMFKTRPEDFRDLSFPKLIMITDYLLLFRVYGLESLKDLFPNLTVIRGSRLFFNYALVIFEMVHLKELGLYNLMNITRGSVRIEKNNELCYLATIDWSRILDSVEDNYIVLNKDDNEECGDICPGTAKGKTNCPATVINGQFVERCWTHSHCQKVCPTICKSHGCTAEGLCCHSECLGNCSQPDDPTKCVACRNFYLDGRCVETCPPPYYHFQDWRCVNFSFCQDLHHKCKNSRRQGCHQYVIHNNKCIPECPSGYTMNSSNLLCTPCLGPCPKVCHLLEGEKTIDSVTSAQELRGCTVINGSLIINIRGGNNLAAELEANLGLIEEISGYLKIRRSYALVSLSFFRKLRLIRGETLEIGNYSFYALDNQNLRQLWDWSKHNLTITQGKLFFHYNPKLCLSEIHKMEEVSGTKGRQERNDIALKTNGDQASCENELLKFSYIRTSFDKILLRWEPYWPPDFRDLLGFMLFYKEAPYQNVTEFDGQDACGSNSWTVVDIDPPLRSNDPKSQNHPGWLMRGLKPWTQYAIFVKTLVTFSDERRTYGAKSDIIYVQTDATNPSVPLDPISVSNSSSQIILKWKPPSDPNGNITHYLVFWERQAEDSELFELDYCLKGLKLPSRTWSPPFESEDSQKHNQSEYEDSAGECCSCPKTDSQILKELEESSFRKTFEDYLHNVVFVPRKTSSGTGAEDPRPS
Insulin receptor, sequence (P06213 763-1382 limits assumed): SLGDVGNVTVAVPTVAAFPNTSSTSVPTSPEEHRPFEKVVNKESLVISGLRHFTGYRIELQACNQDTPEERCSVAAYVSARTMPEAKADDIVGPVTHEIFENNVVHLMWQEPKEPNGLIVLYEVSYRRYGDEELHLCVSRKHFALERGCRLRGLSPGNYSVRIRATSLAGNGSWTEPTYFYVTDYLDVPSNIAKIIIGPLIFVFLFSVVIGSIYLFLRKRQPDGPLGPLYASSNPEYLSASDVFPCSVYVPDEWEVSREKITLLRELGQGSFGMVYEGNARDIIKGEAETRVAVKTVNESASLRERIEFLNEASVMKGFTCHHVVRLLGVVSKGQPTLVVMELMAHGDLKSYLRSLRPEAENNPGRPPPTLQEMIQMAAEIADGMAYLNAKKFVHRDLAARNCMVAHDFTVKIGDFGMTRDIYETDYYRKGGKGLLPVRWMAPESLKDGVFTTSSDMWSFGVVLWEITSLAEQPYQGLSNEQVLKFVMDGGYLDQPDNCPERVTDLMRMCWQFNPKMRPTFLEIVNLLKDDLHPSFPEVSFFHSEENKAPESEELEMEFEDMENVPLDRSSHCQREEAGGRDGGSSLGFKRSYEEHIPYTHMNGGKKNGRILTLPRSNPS
Macrophage colony-stimulating factor 1 receptor, sequence (P07333 whole entry): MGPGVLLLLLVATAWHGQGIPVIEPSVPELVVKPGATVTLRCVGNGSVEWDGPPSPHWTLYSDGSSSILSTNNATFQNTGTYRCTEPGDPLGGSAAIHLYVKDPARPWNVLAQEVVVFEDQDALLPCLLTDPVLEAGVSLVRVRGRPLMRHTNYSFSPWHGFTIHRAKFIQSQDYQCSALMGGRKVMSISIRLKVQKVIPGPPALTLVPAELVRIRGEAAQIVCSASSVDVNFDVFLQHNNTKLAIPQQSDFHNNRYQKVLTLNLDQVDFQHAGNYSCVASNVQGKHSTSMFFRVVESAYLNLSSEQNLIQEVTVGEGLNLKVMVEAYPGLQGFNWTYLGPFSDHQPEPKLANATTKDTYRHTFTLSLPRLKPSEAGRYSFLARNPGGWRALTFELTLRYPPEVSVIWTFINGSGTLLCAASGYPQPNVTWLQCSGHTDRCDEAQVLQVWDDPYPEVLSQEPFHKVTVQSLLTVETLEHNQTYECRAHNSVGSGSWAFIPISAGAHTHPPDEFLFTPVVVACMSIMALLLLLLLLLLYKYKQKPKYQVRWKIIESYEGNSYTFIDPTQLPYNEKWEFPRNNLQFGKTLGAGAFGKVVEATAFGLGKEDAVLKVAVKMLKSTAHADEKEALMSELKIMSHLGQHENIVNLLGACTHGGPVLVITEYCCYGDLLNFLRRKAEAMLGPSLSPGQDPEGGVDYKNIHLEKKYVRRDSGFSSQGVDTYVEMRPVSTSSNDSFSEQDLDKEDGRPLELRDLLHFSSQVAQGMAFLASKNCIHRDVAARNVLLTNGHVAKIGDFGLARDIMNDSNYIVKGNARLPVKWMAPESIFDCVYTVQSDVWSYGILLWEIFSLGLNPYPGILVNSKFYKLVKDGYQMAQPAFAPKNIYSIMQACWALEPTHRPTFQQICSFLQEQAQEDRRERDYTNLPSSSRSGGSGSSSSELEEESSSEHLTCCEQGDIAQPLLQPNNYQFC

Structure (SMILES): Cc1n[nH]c2cc(Nc3nc(NC4CC4)c4occc4n3)ccc12
- IC50 [1]: > 10 µM
- IC50 [2]: > 10 µM
- IC50 [3]: > 10 µM
- IC50 [4]: > 10 µM
- IC50 [5]: 4.14 µM
- IC50 [6]: 9.96 µM
- IC50 [7]: > 10 µM
- IC50 [8]: > 10 µM
- IC50 [9]: 6.01 µM

Structure (SMILES): FC(F)(F)CNc1nc(Nc2ccc3cn[nH]c3c2)nc2ccoc12
- IC50 [1]: > 10 µM
- IC50 [3]: > 10 µM
- IC50 [4]: > 10 µM
- IC50 [5]: 3.21 µM
- IC50 [6]: 8.12 µM
- IC50 [7]: > 10 µM
- IC50 [8]: > 10 µM
- IC50 [9]: 7.4 µM

Structure (SMILES): CC1(C)OCC(=O)Nc2cc(Nc3nc(NCC(F)(F)F)c4occc4n3)ccc21
- IC50 [1]: > 10 µM
- IC50 [2]: 2.13 µM
- IC50 [3]: > 10 µM
- IC50 [4]: > 10 µM
- IC50 [5]: > 10 µM
- IC50 [6]: > 10 µM
- IC50 [7]: 8.52 µM
- IC50 [8]: > 10 µM
- IC50 [9]: 5.11 µM

Structure (SMILES): FC(F)(F)CNc1nc(Nc2ccc(N3CCOCC3)c(Cl)c2)nc2ccoc12
- IC50 [1]: > 10 µM
- IC50 [2]: 3.48 µM
- IC50 [3]: > 10 µM
- IC50 [4]: > 10 µM
- IC50 [5]: > 10 µM
- IC50 [6]: > 10 µM
- IC50 [7]: > 10 µM
- IC50 [8]: > 10 µM
- IC50 [9]: > 10 µM
